Two compounds from patent USRE38102E1, “Use of a pyridazinone derivative” (Orion Corporation, priority 1998, dated 2003) can be followed below.

In experiment [1] the test system is guinea-pig papillary muscle. Nature of the experiment: Positive inotropic effect in paced cardiac muscle. The class given is cell-based. Particulars: Cavia porcellus; right ventricular papillary muscle paced at 1 Hz, 37° C. Here is the method:
Positive Inotropic Effect in Paced Cardiac Muscle
Four weeks old guinea-pigs weighing about 350 g were used. In the experiments the right ventricular papillary muscle of the heart was mounted for measurement of isometric tension in organ bath containing modified Tyrode solution (37° C.) bubbled with 95% O2, 5% CO2. The composition of the modified Tyrode solution was (mM): NaCl 135; MgCl2.6H2O 1; KCl 5; CaCl2.2H2O 2; NaHCO3 15; Na2HPO4.2H2O 1; glucose 10; pH 7.3-7.4. The volume of the open horizontal chamber was 1 ml and flow rate of the superfusion solution running through the chamber was 5 ml/min. Papillary muscle (<1 mm in diameter) was stretched horizontally between force-displacement transducer (FT 0.3 and a needle fixed to the bottom of the chamber. An initial stretching tension of 300 mg was applied to the muscle which was electrically stimulated (Stimulator model SEC 48 F, Grass Instruments) via platinum field electrodes at 1 Hz with rectangular pulses (duration 4 ms). The stimulation occurred at twice threshold voltage in order to achieve simultaneous activation of all myocytes in the […]. A force-displacement transducer was connected to a polygraph D.C. driver amplifier (model 7 DA, Grass Instruments) and a programmable scanner (model SI 5010, Tetronix). […]

Experiment [2] has as its system skinned cardiac fiber (left ventricular papillary muscle). Nature of the experiment: Calcium sensitizing effect in skinned cardiac fiber. Particulars: pCa 5.6; concentration not given. The format is cell-based, guinea-pig. From the text: Calcium Sensitizing Effect in Skinned Cardiac Fiber
Left ventricular papillary muscle of the guinea-pig was dissected and rinsed in ice-cold Tyrode solution. Thereafter the papillary muscle was immersed into a solution containing (mM): Potassium acetate 74.7, EGTA 10, MgSO4 5.4, ATP-Na2 4, DTE 1, MOPS 20, pH 7.0 (by 1 M KOH). Subsequently, the papillary muscle was sonicated at 10 Watt for 60 sec in this ice-cold solution. The distance between ultrasound probe and the papillary muscle was 10 mm. The fibers (<200 μm in diameter) were dissected from surface of sonicated papillary muscles. Moreover, the sonicated and dissected fibers were kept for 30 min in a “skinning” solution (ice-cold) containing saponin (250 μg/ml) in addition to the other constituents. Continuous magnetic stirring was used during this treatment.
The fibers which were further dissected (<100 μm in diameter) were then mounted horizontally with a glue (cellulose acetate in acetone) between a steel-rod extension of isometric force transducer (AME-801 strain gauge, Horten Electronics, Norway) and a glass rod attached to a micro-manipulator. The force transducer was connected to an amplifier. The fibers were kept in the “relaxing” solution containing (mM): imidazole 30, ATP-Na2 10, NaN3 5, EGTA 5, MgCl2 12.5, and 350 U creatinkinase. The temperature of the solution was 22° C. and the pH was set to 6.7 by 1 M KOH. […]

pEC50: −log10 of the molar value.

The pEC50 is the negative decadic logarithm of the EC50, by convention in mol/L. For `Cc1[nH]c(=O)c(C#N)cc1-c1ccncc1` [Milrinone, milrinone], the pEC50 in experiment [1] was 5.70. In addition, the “Calcium sensitizing effect in skinned fiber: Change in force % of control” value in experiment [2] is given as “ineffective”. Consider `CC(=O)Nc1ccc(C2=NNC(=O)C[C@H]2C)cc1` [Compound A, (R)-N-[4-(1,4,5,6-tetrahydro-4-methyl-6-oxo-3-pyridazinyl)phenyl]acetamide], for which the pEC50 in experiment [1] is 7.00.
